This passage reports IC50 results from ChEMBL document CHEMBL1201862, “PubChem BioAssay data set” (2004).

The IC50 is the concentration at which inhibition is half-maximal.

The assay concerns the target Envelope glycoprotein gp160 (Human immunodeficiency virus 1, UniProt Q6QLK5). The assay can be described thus: cell-free HIV fusion peptide-binding blockers – biochemical, uHTS, fluorescence dequenching, […] (AID 1986).

The source made the active and inactive calls. Rule as the data show it: actives have a measured IC50 and inactives only a lower limit.

Chain of Envelope glycoprotein gp160 (Q6QLK5 whole entry, the tested form may be a part): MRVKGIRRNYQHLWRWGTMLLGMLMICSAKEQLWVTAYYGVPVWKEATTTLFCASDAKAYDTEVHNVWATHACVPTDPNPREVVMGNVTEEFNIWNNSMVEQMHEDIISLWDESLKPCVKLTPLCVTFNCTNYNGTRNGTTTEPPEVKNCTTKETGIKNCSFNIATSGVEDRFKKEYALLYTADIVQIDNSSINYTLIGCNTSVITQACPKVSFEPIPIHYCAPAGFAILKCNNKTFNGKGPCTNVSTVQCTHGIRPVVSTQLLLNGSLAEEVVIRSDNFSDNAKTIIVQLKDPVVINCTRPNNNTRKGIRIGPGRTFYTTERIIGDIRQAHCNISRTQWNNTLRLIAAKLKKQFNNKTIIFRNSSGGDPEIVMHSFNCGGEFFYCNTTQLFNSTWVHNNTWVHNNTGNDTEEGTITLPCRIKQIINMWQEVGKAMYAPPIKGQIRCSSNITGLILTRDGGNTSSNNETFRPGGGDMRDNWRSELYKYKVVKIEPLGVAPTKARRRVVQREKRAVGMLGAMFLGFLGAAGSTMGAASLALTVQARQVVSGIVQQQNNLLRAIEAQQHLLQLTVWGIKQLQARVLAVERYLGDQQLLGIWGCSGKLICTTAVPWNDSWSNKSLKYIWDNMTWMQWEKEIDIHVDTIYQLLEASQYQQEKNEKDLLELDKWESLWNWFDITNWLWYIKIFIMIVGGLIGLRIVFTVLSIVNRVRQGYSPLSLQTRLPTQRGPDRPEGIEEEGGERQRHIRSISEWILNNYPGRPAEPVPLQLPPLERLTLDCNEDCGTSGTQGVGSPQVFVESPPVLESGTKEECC

`O=S(=O)(Nc1nc(-c2sccc2Cl)cs1)c1cc(Cl)ccc1Cl`: the IC50 is 8.21 µM (active).
